In ChEMBL document CHEMBL3727348, “3-(aryl or heteroaryl) methyleneindolin-2-one derivatives as inhibitors of cancer stem cell pathway kinases for the treatment of cancer” (2014):

test system: FaDu; assay: Cytotoxic activity against human FADU cancer stem cells incubated for 72 hrs by Cell-titer-Glo luminescence assay; format: functional, cell-based; details: not given

Row | SMILES | IC50
1 | CCN(CC)CCNC(=O)c1c(C)[nH]c(/C=C2\C(=O)Nc3ccc(-c4cc(-c5ccccc5)ccn4)cc32)c1C | 9.67 µM
2 | CCN(CC)CCNC(=O)c1c(C)[nH]c(/C=C2\C(=O)Nc3ccc(-c4cnc5ccccc5n4)cc32)c1C | 0.04 µM
3 | O=C1Nc2ccc(-c3csc(-c4ccccc4)n3)cc2/C1=C/c1ncc[nH]1 | 2.5 µM
4 | CCN(CC)CCNC(=O)c1c(C)[nH]c(/C=C2\C(=O)Nc3ccc(-c4ccc(-c5ccccc5)nc4)cc32)c1C | 3.96 µM
5 | Cc1[nH]c(/C=C2\C(=O)Nc3ccc(-c4ccc(-c5ccccc5)s4)cc32)c(C)c1C(=O)N1CCOCC1 | 2.47 µM
6 | COC(=O)c1c(C)[nH]c(/C=C2\C(=O)Nc3ccc(-c4csc(-c5ccncc5)n4)cc32)c1C | 6.74 µM
7 | CCN(CC)CCNC(=O)c1c(C)[nH]c(/C=C2\C(=O)Nc3ccc(-c4ncccn4)cc32)c1C | 0.09 µM
8 | CCN(CC)CCNC(=O)c1c(C)[nH]c(/C=C2\C(=O)Nc3cc(-c4ccc(O)cc4C)ccc32)c1C | 1.54 µM
9 | CCN(CC)CCNC(=O)c1c(C)[nH]c(/C=C2\C(=O)Nc3ccc(-c4csc(-n5cccn5)n4)cc32)c1C | 5.11 µM

test system: A549; assay: Cytotoxic activity against human A549 bulk cells incubated for 72 hrs by Cell-titer-Glo luminescence assay; format: functional, cell-based; details: A549, 72 h

Row | SMILES | IC50
10 | CCN(CC)CCNC(=O)c1c(C)[nH]c(/C=C2\C(=O)Nc3ccc(-c4cc(-c5ccccc5)ccn4)cc32)c1C | 1.5 µM
11 | CCN(CC)CCNC(=O)c1c(C)[nH]c(/C=C2\C(=O)Nc3ccc(-c4cnc5ccccc5n4)cc32)c1C | 8.13 µM
12 | O=C1Nc2ccc(-c3csc(-c4ccccc4)n3)cc2/C1=C/c1ncc[nH]1 | 17.2 µM
13 | CCN(CC)CCNC(=O)c1c(C)[nH]c(/C=C2\C(=O)Nc3ccc(-c4ccc(-c5ccccc5)nc4)cc32)c1C | 2.3 µM
14 | Cc1[nH]c(/C=C2\C(=O)Nc3ccc(-c4ccc(-c5ccccc5)s4)cc32)c(C)c1C(=O)N1CCOCC1 | 10.1 µM
15 | COC(=O)c1c(C)[nH]c(/C=C2\C(=O)Nc3ccc(-c4csc(-c5ccncc5)n4)cc32)c1C | 9.61 µM
16 | CCN(CC)CCNC(=O)c1c(C)[nH]c(/C=C2\C(=O)Nc3ccc(-c4ncccn4)cc32)c1C | 15.4 µM
17 | CCN(CC)CCNC(=O)c1c(C)[nH]c(/C=C2\C(=O)Nc3cc(-c4ccc(O)cc4C)ccc32)c1C | 2.76 µM
18 | CCN(CC)CCNC(=O)c1c(C)[nH]c(/C=C2\C(=O)Nc3ccc(-c4csc(-n5cccn5)n4)cc32)c1C | 3.71 µM

test system: A549; assay: Cytotoxic activity against human A549 cancer stem cells incubated for 72 hrs by Cell-titer-Glo luminescence assay; format: functional, cell-based; details: A549, 72 h

Row | SMILES | IC50
19 | CCN(CC)CCNC(=O)c1c(C)[nH]c(/C=C2\C(=O)Nc3ccc(-c4cc(-c5ccccc5)ccn4)cc32)c1C | 2 µM
20 | CCN(CC)CCNC(=O)c1c(C)[nH]c(/C=C2\C(=O)Nc3ccc(-c4cnc5ccccc5n4)cc32)c1C | 42.3 µM
21 | O=C1Nc2ccc(-c3csc(-c4ccccc4)n3)cc2/C1=C/c1ncc[nH]1 | 2.31 µM
22 | CCN(CC)CCNC(=O)c1c(C)[nH]c(/C=C2\C(=O)Nc3ccc(-c4ccc(-c5ccccc5)nc4)cc32)c1C | 6.45 µM
23 | Cc1[nH]c(/C=C2\C(=O)Nc3ccc(-c4ccc(-c5ccccc5)s4)cc32)c(C)c1C(=O)N1CCOCC1 | 11 µM
24 | COC(=O)c1c(C)[nH]c(/C=C2\C(=O)Nc3ccc(-c4csc(-c5ccncc5)n4)cc32)c1C | 4.8 µM
25 | CCN(CC)CCNC(=O)c1c(C)[nH]c(/C=C2\C(=O)Nc3ccc(-c4ncccn4)cc32)c1C | 18 µM
26 | CCN(CC)CCNC(=O)c1c(C)[nH]c(/C=C2\C(=O)Nc3cc(-c4ccc(O)cc4C)ccc32)c1C | 7.55 µM
27 | CCN(CC)CCNC(=O)c1c(C)[nH]c(/C=C2\C(=O)Nc3ccc(-c4csc(-n5cccn5)n4)cc32)c1C | 6.64 µM

test system: ACHN; assay: Cytotoxic activity against human ACHN bulk cells incubated for 72 hrs by Cell-titer-Glo luminescence assay; format: functional, cell-based; details: not given

Row | SMILES | IC50
28 | CCN(CC)CCNC(=O)c1c(C)[nH]c(/C=C2\C(=O)Nc3ccc(-c4cc(-c5ccccc5)ccn4)cc32)c1C | 2.41 µM
29 | CCN(CC)CCNC(=O)c1c(C)[nH]c(/C=C2\C(=O)Nc3ccc(-c4cnc5ccccc5n4)cc32)c1C | 5.73 µM
30 | O=C1Nc2ccc(-c3csc(-c4ccccc4)n3)cc2/C1=C/c1ncc[nH]1 | 1.44 µM
31 | CCN(CC)CCNC(=O)c1c(C)[nH]c(/C=C2\C(=O)Nc3ccc(-c4ccc(-c5ccccc5)nc4)cc32)c1C | 7.41 µM
32 | Cc1[nH]c(/C=C2\C(=O)Nc3ccc(-c4ccc(-c5ccccc5)s4)cc32)c(C)c1C(=O)N1CCOCC1 | 12.8 µM
33 | COC(=O)c1c(C)[nH]c(/C=C2\C(=O)Nc3ccc(-c4csc(-c5ccncc5)n4)cc32)c1C | 12.6 µM
34 | CCN(CC)CCNC(=O)c1c(C)[nH]c(/C=C2\C(=O)Nc3ccc(-c4ncccn4)cc32)c1C | 3.5 µM
35 | CCN(CC)CCNC(=O)c1c(C)[nH]c(/C=C2\C(=O)Nc3cc(-c4ccc(O)cc4C)ccc32)c1C | 2.53 µM
36 | CCN(CC)CCNC(=O)c1c(C)[nH]c(/C=C2\C(=O)Nc3ccc(-c4csc(-n5cccn5)n4)cc32)c1C | 7.88 µM

test system: ACHN; assay: Cytotoxic activity against human ACHN cancer stem cells incubated for 72 hrs by Cell-titer-Glo luminescence assay; format: functional, cell-based; details: not given

Row | SMILES | IC50
37 | CCN(CC)CCNC(=O)c1c(C)[nH]c(/C=C2\C(=O)Nc3ccc(-c4cc(-c5ccccc5)ccn4)cc32)c1C | 0.9 µM
38 | CCN(CC)CCNC(=O)c1c(C)[nH]c(/C=C2\C(=O)Nc3ccc(-c4cnc5ccccc5n4)cc32)c1C | 5.59 µM
39 | O=C1Nc2ccc(-c3csc(-c4ccccc4)n3)cc2/C1=C/c1ncc[nH]1 | 2.91 µM
40 | CCN(CC)CCNC(=O)c1c(C)[nH]c(/C=C2\C(=O)Nc3ccc(-c4ccc(-c5ccccc5)nc4)cc32)c1C | 0.63 µM
41 | Cc1[nH]c(/C=C2\C(=O)Nc3ccc(-c4ccc(-c5ccccc5)s4)cc32)c(C)c1C(=O)N1CCOCC1 | 0.23 µM
42 | COC(=O)c1c(C)[nH]c(/C=C2\C(=O)Nc3ccc(-c4csc(-c5ccncc5)n4)cc32)c1C | 6.16 µM
43 | CCN(CC)CCNC(=O)c1c(C)[nH]c(/C=C2\C(=O)Nc3ccc(-c4ncccn4)cc32)c1C | 1.15 µM
44 | CCN(CC)CCNC(=O)c1c(C)[nH]c(/C=C2\C(=O)Nc3cc(-c4ccc(O)cc4C)ccc32)c1C | 2.17 µM
45 | CCN(CC)CCNC(=O)c1c(C)[nH]c(/C=C2\C(=O)Nc3ccc(-c4csc(-n5cccn5)n4)cc32)c1C | 0.62 µM

test system: FaDu; assay: Cytotoxic activity against human FADU bulk cells incubated for 72 hrs by Cell-titer-Glo luminescence assay; format: functional, cell-based; details: not given

Row | SMILES | IC50
46 | CCN(CC)CCNC(=O)c1c(C)[nH]c(/C=C2\C(=O)Nc3ccc(-c4cc(-c5ccccc5)ccn4)cc32)c1C | 2.58 µM
47 | CCN(CC)CCNC(=O)c1c(C)[nH]c(/C=C2\C(=O)Nc3ccc(-c4cnc5ccccc5n4)cc32)c1C | 2.66 µM
48 | O=C1Nc2ccc(-c3csc(-c4ccccc4)n3)cc2/C1=C/c1ncc[nH]1 | 7.57 µM
49 | CCN(CC)CCNC(=O)c1c(C)[nH]c(/C=C2\C(=O)Nc3ccc(-c4ccc(-c5ccccc5)nc4)cc32)c1C | 4.92 µM
50 | Cc1[nH]c(/C=C2\C(=O)Nc3ccc(-c4ccc(-c5ccccc5)s4)cc32)c(C)c1C(=O)N1CCOCC1 | 21.1 µM
51 | COC(=O)c1c(C)[nH]c(/C=C2\C(=O)Nc3ccc(-c4csc(-c5ccncc5)n4)cc32)c1C | 18.6 µM
52 | CCN(CC)CCNC(=O)c1c(C)[nH]c(/C=C2\C(=O)Nc3ccc(-c4ncccn4)cc32)c1C | 6.02 µM
53 | CCN(CC)CCNC(=O)c1c(C)[nH]c(/C=C2\C(=O)Nc3cc(-c4ccc(O)cc4C)ccc32)c1C | 2.14 µM
54 | CCN(CC)CCNC(=O)c1c(C)[nH]c(/C=C2\C(=O)Nc3ccc(-c4csc(-n5cccn5)n4)cc32)c1C | 4.68 µM
